Patent US9101148B2, “Carbohydrate modifying agent and drinks containing the modifying agent” (SBS Food Group LLC, priority 2001, dated 2015)

Tested on: mutans streptococci
Assay: Inhibition of growth and adherence of mutans streptococci in vitro by zinc salts
Format: cell-based
Details: 0.5% zinc solution
Excerpt: In another preferred embodiment of the invention, the formulation includes one or more zinc salt or other source of the zinc ion. Metabolically, zinc is a critical nutrient in the synthesis of insulin and the metabolism of carbohydrates. From a dental perspective, cariogenic bacteria enzymatically produce an insoluble glucan deposit from simple sugars present in the mouth that firmly adheres to the enamel tooth surface.

Compound	adherence of mutans streptococci	growth of mutans streptococci
zinc ascorbate	inhibited	inhibited
[Cl-].[Cl-].[Zn+2] [zinc chloride]	inhibited	inhibited
